From patent EP1813636A1, “Polyamine analogs that activate antizyme frameshifting” (MediQuest Therapeutics, Inc., priority 2004, dated 2007)

Columns and labels:
ODC = target: T1, ODC (Homo sapiens, UniProt P11926); details: inhibition of ODC; cited from earlier work
T1 sequence (P11926 1-461): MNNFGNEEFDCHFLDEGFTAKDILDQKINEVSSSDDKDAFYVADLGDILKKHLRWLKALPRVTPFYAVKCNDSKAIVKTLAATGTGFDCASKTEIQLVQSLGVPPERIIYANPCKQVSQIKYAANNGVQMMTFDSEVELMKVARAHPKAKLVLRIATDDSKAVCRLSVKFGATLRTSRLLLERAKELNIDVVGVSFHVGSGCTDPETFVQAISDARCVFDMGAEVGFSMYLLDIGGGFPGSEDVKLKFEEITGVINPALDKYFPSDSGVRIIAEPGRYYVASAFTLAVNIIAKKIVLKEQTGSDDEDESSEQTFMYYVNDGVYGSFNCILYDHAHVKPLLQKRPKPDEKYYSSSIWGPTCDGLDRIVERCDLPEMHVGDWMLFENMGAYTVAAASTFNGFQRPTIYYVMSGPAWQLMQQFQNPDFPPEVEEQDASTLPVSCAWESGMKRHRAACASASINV

HEK-293 cells [1] = experiment: rescue from DFMO-induced growth inhibition (6 days, MTS/PMS dye assay); type: cell-based; details: 25 µM compound, 2.5 mM DFMO
Method: The rescue coefficient represents the ratio of cell growth, as measured by O.D., of the test compound with 2.5 mM DFMO versus 2.5 mM DFMO alone.
HEK-293 cells are plated in 96-well assay plates at 1,000 cells per well in 100 µL of medium (DMEM supplemented with 10% fetal bovine serum (Gibco), 1% penicillin, streptomycin and L-glutamine). The cells are incubated overnight at 37°C in an atmosphere of 5% CO2. Compounds are added the next day to a final concentration of 25 µM along with 1 mM aminoguanidine (inhibits serum amine oxidase) and 2.5 mM DFMO in a final volume of 200 µL medium. The positive control contained 25 µM spermidine. The cells are allowed to incubate for 6 days before cell growth is measured by MTS/PMS dye assay (Cell Titer 96 Aqueous Non-Radioactive Cell Proliferation Assay, Promega). […] Therefore, DFMO alone has a value of one. […] If the value is less than one, then the compound is growth inhibitory. If the value is 0, the compound is cytotoxic.

antizyme = details: 10 µM; cited from earlier work
HEK-293 cells [2] = experiment: cells
Method: Cell number was determined by MTS/PMS assay from triplicate wells. Cells are plated in 96-well plates such that they would be in log growth for the duration of the assay. The day after plating, the polyamine analogs are added to the cells, and growth, if any, permitted to continue for six days in the presence of 1 mM AG and 1 µM SPD when appropriate. At the end of six days, cell growth is measured by MTS/PMS dye assay (Cell Titer 96 Aqueous Non-Radioactive Cell Proliferation Assay; Promega, Madison, WI).

HEK-293 cells [3] = experiment: intracellular polyamine levels (HPLC) and cell growth after 6-day incubation; type: cell-based
Method: Figure 6 is a graph showing the effect of a 6-day incubation of compound A on HEK-293 cellular polyamine levels and cell growth. All flasks received 1 mM aminoguanidine. Cells were washed, counted, lysed in perchloric acid, dansylated and polyamine levels determined by HPLC. Each value represents the average of triplicate values with the error bars representing standard deviation. Figure 7 illustrates the effect of extracellular compound A on the intracellular concentration of compound A in HEK-293 cells as determined by HPLC. Cells were prepared as in Figure 6. Peak area was normalized by dividing the peak area of the compound divided by the peak area of the internal standard, diaminoheptane. Values represent at least triplicate measurements with the error bars representing standard deviation.
Compound A is further evaluated to determine if it depletes intracellular polyamine levels in HEK-293 cells in a dose-dependent fashion (Fig. 6). […] After overnight incubation at 37°C in an atmosphere of 5% CO2, compound A is added along with 1 mM aminoguanidine. The flasks are then incubated for 6 days at 37°C in an atmosphere of 5% CO2. The cells are harvested by washing twice with ice-cold 1X PBS, trypsinized, counted, and lysed in 0.4 N perchloric acid. Diaminoheptane is used in all dansylation reactions as an internal standard. Peak area is normalized by dividing the peak area of the compound divided by the peak area of the internal standard. The HPLC method for the fluorometric detection of polyamines from the cell extracts is based on the procedure by Kabra (Kabra, P. M. et. al. J. Chromatogr. 380:19-32 (1986)).

antizyme frameshifting = experiment: dual luciferase reporter assay for antizyme frameshifting in HEK-293 cells; type: cell-based; details: for frameshift-rescue factor (FRF): %RF multiplied by the inverse of the rescue coefficient
Method: Frameshifting can be detected using a dual luciferase reporter system that measures the efficiency of antizyme translational frameshifting (Grentzmann, G. et. al., RNA 4:479-486 (1998); Howard, M. et. al., Genes to Cells 6:931-941 (2001)). Frameshifting efficiency is determined by comparing the ratio of firefly luciferase to renilla luciferase activity in cells transfected in parallel using a control vector containing a constitutive […] (AZ-IF) that measures the in-frame translation efficiency and a vector containing the inducible 0 to +1 frameshift (AZ1) construct. In these constructs, the renilla luciferase gene is upstream of the firefly luciferase gene which are separated by a short cloning sequence containing the portions of antizyme 1 and 2 known to contain the mRNA signals for polyamine stimulated frameshifting. Using a 96-well format, this assay system gives a quantitative measure of the efficiency of the polyamines, polyamine analogs and other compounds to induce frameshifting in a cell-based bioassay. Cells must be pretreated with α-difluoromethylomithine (DFMO), an irreversible inhibitor of ODC, prior to screening to decrease the basal antizyme frameshifting levels and increase the sensitivity to polyamine or compound-mediated stimulation of antizyme frameshifting.
Figure 1 is a tabular representation of a large number of polyamines A-S (25 µM) that were tested for their ability to induce antizyme frameshifting using the dual luciferase reporter assay. The percent relative frameshifting value (% RF) gives a comparison of the ability of a compound to induce frameshifting compared to 25 µM spermidine. The % RF was calculated as follows. The background percent frameshifting activity determined from the 2.5 mM DFMO negative control was subtracted from the percent frameshifting activity for all compounds including the spermidine control. The background corrected frameshifting activity of each compound was then divided by the background corrected frameshifting activity induced by 25 µM spermidine and multiplied by 100. The compounds were also evaluated for their ability to rescue cells from DFMO-induced growth inhibition by determining their rescue coefficient. The rescue coefficient represents the ratio of the cell growth, as measured by O.D., in the presence of the test compound with 2.5 mM DFMO to the growth in the presence of 2.5 mM DFMO alone. The frameshift-rescue factor (FRF) is a useful factor to compare the effectiveness of the various antizyme frameshifters by taking into account their potency for inducing frameshifting and ability to rescue cells from DFMO-induced growth inhibition. The FRF was calculated by multipling the %RF value by the inverse of the rescue coefficient.
Values represent percent frameshifting following transient transfection of an AZ1-IF control and the inducible 0 to +1 AZ1 plasmid construct into HEK-293 cells grown in the presence of 2.5 mM DFMO. The compounds were added to the cells after transfection and incubated overnight before assaying the next day. Each value represents triplicate measurements.
A series of compounds are screened for their ability to induce frameshifting using the dual luciferase reporter assay. HEK-293 cells are plated in white sided, clear-bottomed 96-well assay plates at 15,000 cells per well in 100 µL of medium (DMEM supplemented with 10% fetal bovine serum (Gibco), 1% penicillin, streptomycin and L-glutamine) containing 2.5 mM DFMO. […]

Structure (SMILES): NC/C=C/CN [1,4-diamino-trans-2-butene]
- Ki (ODC): 2 µM

Structure (SMILES): Nc1ccc(N)cc1 [1,4-phenylenediamine]
- Ki (ODC): 46 µM

Structure (SMILES): N=C(N)NCCCCN [Agmatine, reference compound]
- ability to rescue cells from DFMO-induced growth inhibition (HEK-293 cells [1]): somewhat better than either A or B

Structure (SMILES): CCNCCCCNCCCCNCCCCNCCCCNCC [BE-4-4-4-4, 1,19-bis(ethylamino)-5,10,15-triazanonadecane]
- antizyme induction compared with spermine (antizyme): induce antizyme as well as spermine

Structure (SMILES): NCCCNCc1ccc(CN)cc1 [Compound A]
- concentration range of compound A in which 1 µM spermidine rescues cells from growth inhibition (HEK-293 cells [2]; HEK-293 cells, addition of 1 µM spermidine): 3 to 100 µM
- IC50 (HEK-293 cells [2]; Homo sapiens, HEK293, 144 h, read-out: IC50 for growth inhibition, HEK-293 cells, 6 days, 1 mM aminoguanidine): ~60 µM
- cell growth decreasing by (HEK-293 cells [3]; 10 µM compound A, 6 days): 32%
- spermidine levels down by (HEK-293 cells [3]; 10 µM compound A, 6 days): about 90%
- cell growth decreasing by (HEK-293 cells [3]; 30 µM compound A, 6 days): 38.5%
- spermine levels reduced by (HEK-293 cells [3]; 100 µM compound A, 6 days): 50%
- spermine levels, percent of normal (HEK-293 cells [3]; compound A levels above 30 µM): approximately 50%
- frameshift-rescue factor (FRF) (antizyme frameshifting; 25 µM): 120
- EC50 (antizyme frameshifting; Homo sapiens, HEK293, HEK-293 cells, 2.5 mM DFMO, concentration giving 50% of the maximum percent frameshifting (plateau), read-out: EC50 for induction of frameshifting): ~120 µM

Structure (SMILES): NCCCCNCc1ccc(CNCCCN)cc1 [Compound B]
- potency in inducing antizyme frameshifting compared with agmatine (antizyme frameshifting; 25 µM, Fig 2): more potent than agmatine
- frameshift-rescue factor (FRF) (antizyme frameshifting; 25 µM): 83
- ability to rescue cells from DFMO-induced growth inhibition (HEK-293 cells [1]): neither compound A nor B significantly rescue cells

Structure (SMILES): NCCCN(CCCN)Cc1ccc(CN(CCCN)CCCN)cc1 [Compound S, reference compound]
- %RF (percent relative frameshifting) (antizyme frameshifting; 25 µM compound, relative to 25 µM spermidine): 100%

Structure (SMILES): CCNCCCCNCCCCNCCCCNCC [bisethylhomospermine]
- antizyme induction compared with spermine (antizyme): induce antizyme as well as spermine

Structure (SMILES): CCNCCCNCCCNCCCNCC [bisethylnorspermine]
- antizyme induction compared with spermine (antizyme): induce antizyme as well as spermine
